For series [1], the system named is IL6/pSTAT1 pathway. In words: MDZ DDI study ex vivo IL6/pSTAT1 in CD4+ T-cells. Conditions: 150 mg q.d., Day 6, ex vivo stimulation of whole blood.
For series [2], the system named is IL6/pSTAT3 pathway. In words: MDZ DDI study ex vivo IL6/pSTAT3 in CD4+ T-cells. The following applies: 150 mg q.d., Day 6, ex vivo stimulation of whole blood.
In series [3] the test system is IL2/pSTAT5 pathway. Nature of the series: MDZ DDI study ex vivo IL2/pSTAT5 in CD4+ T-cells. Conditions: 150 mg q.d., Day 6, ex vivo stimulation of whole blood.
Series [4] has as its system IFN-α/pSTAT1 pathway. In words: MDZ DDI study ex vivo IFN-α/pSTAT1 in CD4+ T-cells. The following applies: 150 mg q.d., Day 6, ex vivo stimulation of whole blood.
Series [5] relates to IFN-α/pSTAT3 pathway. Nature of the series: MDZ DDI study ex vivo IFN-α/pSTAT3 in CD4+ T-cells. Conditions: 150 mg q.d., Day 6, ex vivo stimulation of whole blood.
Series [6] has as its target CYP3A4 (Homo sapiens, UniProt P08684). In words: clinical. The following applies: in vivo. As for the experimental part:
On Days 1 and 7, single dose of 2 mg MDZ as commercially available liquid formulation, containing 2 mg/mL MDZ administered orally under fed conditions.

As a reminder, the AUC(0-inf) is total exposure, with the tail of the curve extrapolated. Low readings indicate low exposure, high ones high exposure. In general, Cmax refers to the peak of the concentration-time curve.

“Also recorded” adds a separate entry of the source.

CYP3A4, sequence (P08684 whole entry): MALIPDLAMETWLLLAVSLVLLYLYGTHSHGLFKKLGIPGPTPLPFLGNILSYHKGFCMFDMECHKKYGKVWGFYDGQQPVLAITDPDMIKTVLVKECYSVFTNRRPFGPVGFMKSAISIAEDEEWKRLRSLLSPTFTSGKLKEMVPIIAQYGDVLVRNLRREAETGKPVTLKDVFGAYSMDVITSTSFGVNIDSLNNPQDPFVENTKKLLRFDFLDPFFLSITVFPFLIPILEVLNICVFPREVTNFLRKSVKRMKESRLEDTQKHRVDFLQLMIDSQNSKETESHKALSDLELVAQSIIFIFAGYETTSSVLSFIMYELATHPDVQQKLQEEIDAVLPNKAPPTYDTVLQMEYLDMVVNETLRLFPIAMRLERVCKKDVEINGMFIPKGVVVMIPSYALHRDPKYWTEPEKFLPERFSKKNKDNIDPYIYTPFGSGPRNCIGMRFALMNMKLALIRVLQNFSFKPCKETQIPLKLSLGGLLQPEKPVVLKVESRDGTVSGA

As to `Cc1cc(C#N)ncc1Oc1cc(Nc2ccc(N3CCOCC3)nn2)c2ncn(C)c2n1` [Compound 1, 4-methyl-5-[3-methyl-7-[(6-morpholin-4-ylpyridazin-3-yl)amino]imidazo[4,5-b]pyridin-5-yl]oxypyridine-2-carbonitrile], in series [1], the “effect on IL6/pSTAT1 pathway” value was “concentration-dependent inhibition”. Further, the “effect on IL6/pSTAT3 pathway” value in series [2] is “Day 1 and Day 6 values were similar; also recorded: no inhibition and no concentration-dependent effect”. The “effect on IL2/pSTAT5 pathway” value in series [3] was “Day 1 and Day 6 values were similar; also recorded: no inhibition and no concentration-dependent effect”. Further, the “effect on IFN-α/pSTAT1 pathway” value in series [4] was “concentration-dependent inhibition”. Further, the “effect on IFN-α/pSTAT3 pathway” value in series [5] is recorded as “concentration-dependent inhibition”.
With `Cc1ncc2n1-c1ccc(Cl)cc1C(c1ccccc1F)=NC2` [MDZ, midazolam], in series [6], the AUC(0-inf) was 27.9 ng·h/mL, the Cmax turned out to be 6.24 ng/mL and the “MDZ AUC0-∞ LS Geometric Mean Ratio (90% CI)” value is given as 121 (109; 133) %. In series [6] (po, 2 mg), this molecule came in with an AUC(0-inf) of 23.5 ng·h/mL and a Cmax of 5.95 ng/mL.
